{"source": "patent US20090246880A1", "about": "“Method for preventing degradation of diacetylpolyamine” (priority 2008, published 2009)", "procedure": "The present invention will next be described in detail by way of examples, which should not be construed as limiting the invention thereto. The percent degradation of diacetylspermine (%) in a sample was calculated on the basis of the amount of diacetylspermine as determined through ELISA. […] Subsequently, the pH of the mixture was adjusted with 50 mM phosphate buffer to 5.5, 6.0, 6.5, 7.0, 7.5, or 8.0. Thereafter, the reaction mixture was incubated at 37° C. for two hours. […] Subsequently, the ratio of the amount of diacetylspermine degraded through incubation to the initial amount of diacetylspermine was calculated."}
{"smiles": "CC(=O)NCCCNCCCCNCCCNC(C)=O", "note": "[diacetylspermine]", "values": [{"measurement": "degradation of diacetylspermine (in words)", "result": "prevented"}]}
